The results in this text go back to patent EP2255813A1, “Derivatives of ursodeoxycholic acid for the treatment of diarrhoea” (The Royal College of Surgeons in Ireland, priority 2009, dated 2010).

This test deals with T84 cells. The test is described as follows: Cl^- secretion measured as short-circuit current (Isc) across T84 cell monolayers in Ussing chambers. Type of test: cell-based. The method, then: Materials and Methods: Cultured T84 epithelial cells were employed as a model of the colonic epithelium. T84 cells were grown as monolayers on filter supports. When grown in this way T84 cells retain many of the characteristics of native intestinal epithelium and are widely considered as being among the best reductionist models for analysing intestinal epithelial secretory responses. T84 cell monolayers were mounted in Ussing chambers, and voltage-clamped to zero potential difference. Under these conditions, transepithelial ion transport can be measured as changes in short-circuit current (Isc) and such changes in Isc across T84 cells have been established as wholly due to Cl^- ion secretion. […]

For 6-methyl-UDCA [MUDCA], the “secretory responses to CCh” value (100µM and 500µM for 15 minutes before CCh (100µM) (Figure 7)) is “inhibited secretory responses to both CCh and FSK”. Further, the “secretory responses to FSK” value (100µM and 500µM for 15 minutes before FSK (10µM) (Figure 7)) is “inhibited secretory responses to both CCh and FSK”.

In the case of `C[C@H](CCC(=O)O)[C@H]1CC[C@H]2[C@@H]3[C@@H](O)C[C@@H]4C[C@H](O)CC[C@]4(C)[C@H]3CC[C@]12C` [UDCA, ursodeoxycholic acid], the minimal effective concentration (Homo sapiens, responses to CCh, T84 cells (Figure 3B), read-out: concentration at which antisecretory effects are apparent) was found to be 50 µM.
